Measured values as given in US10342874B2, “Glucosamine peptide compounds for treating liver metabolic disorders” (Far Eastern Memorial Hospital, priority 2017, dated 2019).

Legend:
[1] = system: C57BL/6JNarl male mice fed with high fat diet; experiment: Blood biochemistry of fatty liver mice; assay type: in vivo; conditions: HFD mice; for aspartate transaminase (AST) and alanine transaminase (ALT) compared with Group 2: 2 mg/kg, statement in words; for ALT / AST / GLU / T-CHO / TG: serum, 2 mg/kg intraperitoneal, six injections in two weeks, mean ± SD, six mice
Procedure: (§1) 24 C57BL/6JNarl male mice at 5 weeks of age were purchased from the National Laboratory Animal Center and housed in the laboratory animal room of the Far Eastern Memorial Hospital at a constant temperature of 22° C., 55% humidity, automatic air regulation (ventilation rate of 12 times per hour), automatic light control (12:12 hour light/dark cycle), and provided with free access to water and chow diet D12450B (Research Diets, Inc.) for two weeks.
(§2) Then the 24 mice (7 weeks of age) were randomly divided into four groups, each containing six mice—Group 1 is the chow diet (CD) control group fed with chow diet D12450B; Group 2 is the high fat diet (HFD) group fed with high fat diet (i.e., modified D12492); Group 3 is the HFD+Compound A treatment group provided with high fat diet and Compound A; and Group 4 is the HFD+Compound B treatment group provided with high fat diet and Compound B.
(§3) Group 1 was fed with chow diet for 18 weeks, followed by 2 more weeks of chow diet, and then given an intraperitoneal injection of saline, without receiving Compound A or Compound B. Group 2, the HFD group, was fed with high fat diet for 18 weeks, followed by 2 more weeks of high fat diet, and then given an intraperitoneal injection of saline, without receiving Compound A or Compound B. Group 3, the HFD+Compound A treatment group, was fed with high fat diet for 18 weeks and then given an intraperitoneal injection of 2 mg/kg of Compound A per mouse, three times a week (once every one or two days) for two weeks, a total of six injections of Compound A. Group 4, the HFD+Compound B treatment group, was fed with high fat diet for 18 weeks and then given an intraperitoneal injection of 2 mg/kg of Compound B per mouse, three times a week (once every one or two days) for two weeks, a total of six injections of Compound B. After completion of feeding and treatment described above, the mice were weighed and euthanized with CO2, and their blood and liver tissue specimens were collected for analysis.
Blood samples from mice of each group in Example 4 were tested for measurement of serum aspartate transaminase (AST), alanine transaminase (ALT), total cholesterol (T-CHO), triglyceride (TG) and glucose (GLU). AST and ALT are common measures of liver function.

[2] = system: C57BL/6JNarl male mice fed with high fat diet; experiment: Analysis of fat amount in liver tissue (H&E stain, Image J); assay type: in vivo; conditions: HFD mice; for percentage of area of lipid droplets relative to the total field of view in liver tissue: 2 mg/kg intraperitoneal, compared with Group 2 (HFD)
Procedure: as §1
(§4) Then the 24 mice (7 weeks of age) were randomly divided into four groups, each containing six mice—Group 1 is the chow diet (CD) control group fed with chow diet D12450B; Group 2 is the high fat diet (HFD) group fed with high fat diet (i.e., modified D12492); Group 3 is the HFD+Compound A treatment group provided with high fat diet and Compound A; and Group 4 is the HFD+Compound B treatment group provided with high fat diet and Compound B. […]
Image J was used to quantify the percentage of area of lipid droplets relative to the total field of view in mice liver tissues (FIG. 5E). […]

[3] = system: C57BL/6JNarl male mice fed with high fat diet; experiment: Fatty liver animal test: liver appearance and liver weight; assay type: in vivo; conditions: HFD mice, 2 mg/kg intraperitoneal, three times a week for two weeks; compared with Group 2 (HFD)
Procedure: as §1, §2, §3

[4] = system: C57BL/6JNarl male mice fed with high fat diet; experiment: Analysis of liver tissue fibrosis (Masson's Trichrome, collagen proportionate area); assay type: in vivo; conditions: HFD mice; for percentage of collagen proportionate area (CPA) in liver tissue: 2 mg/kg intraperitoneal, compared with Group 2 (HFD)
Procedure: as §1, §4
Nuance multispectral image analysis module (PerknElmer, Inc) was used to quantify the collagen proportionate area (CPA), as shown in FIG. 6E. […]

HuH-7 cells = experiment: Oleic acid-induced in vitro fatty liver cell model, lipid droplets by Oil Red O staining quantified by Image J; assay type: cell-based, human
Procedure: Another human hepatocellular carcinoma cell line HuH-7 was used to test the temporal effect of Compound A to further confirm the effect of Compound A on intracellular lipid droplets. Similar to Example 2, to induce in vitro fatty liver cell model on HuH-7 with oleic acid, HuH-7 cells were cultured in a 24-well plate at a cell volume of 8×10^4 and added with 0.1 mM of oleic acid for 24-hour culturing. After the replacement of culture medium containing oleic acid, 10 μg/mL of Compound A was added to DMEM for culturing for 4 hours, 8 hours, 16 hours, and 24 hours; each time point performed four repetitions. ORO staining was used to confirm the level of lipid droplets in HuH-7, and their number and size were quantified by Image J.

HepG2 cells = experiment: as above; assay type: cell-based, human; conditions: for lipid droplet accumulation: HepG2, 10 nM compound for 24 hours
Procedure: Human hepatocellular carcinoma cell line HepG2 was cultured in Dulbecco's modified Eagle's medium (DMEM, containing 4,500 mg/L D-glucose and L-glutamine) supplemented with 10% fetal bovine serum and 1% penicillin/streptomycin at 37° C. incubator with 5% CO2. To induce in vitro fatty liver cell model on HepG2 with oleic acid-bovine serum albumin complex (Sigma-Aldrich, USA), HepG2 cells were cultured in a 24-well plate at a cell volume of 8×10^4; after 18 to 24 hours when a 70% confluence of cell growth has reached, 0.1 mM of oleic acid was added for culturing for 24 hours. After the replacement of culture medium containing oleic acid, 0.5 μg/mL, 1 μg/mL, 2.5 μg/mL, 5 μg/mL and 10 μg/mL of Compound A were added to DMEM containing 2% fetal bovine serum for culturing for 8 hours; each experimental group performed four repetitions.
Oil Red O (ORO) staining was used to confirm the level of lipid droplets, e.g., amount of red particles, in HepG2. After 24 hours of oleic acid treatment, HepG2 cells were fixed with 4% paraformaldehyde for 15 minutes, followed by phosphate-buffered saline (PBS) washing for three times and then ORO staining for 1 hour. After staining, the cells were washed with PBS for three times, followed by hematoxylin staining for 5 minutes. The coverslip was reversely placed on the slide and sealed with glycerine for observation with optical microscope; images were taken and saved as electronic files.
Intracellular lipid droplets were quantified by Image J (National Institutes of Health, NIH) after adjustment to a proper threshold value. Images with at least 20 cells were analyzed and quantified by Image J with the “analyze particles” functions in threshold single sections with size (pixel^2) setting from 0.1 to 10.
Similar to Example 1, to induce in vitro fatty liver cell model on HepG2 with oleic acid, HepG2 cells were cultured in a 24-well plate at a cell volume of 8×10^4 and added with 0.1 mM of oleic acid for 24-hour culturing. After the replacement of culture medium containing oleic acid, 10 μg/mL of Compound A was added to DMEM for culturing for 4 hours, 8 hours, 16 hours, and 24 hours; each time point performed four repetitions. ORO staining was used to confirm the level of lipid droplets in HepG2, and their number and size were quantified by Image J.
Compound C, which is a derivative of Compound A, was also tested to further investigate the effect of glucosamine peptide compounds defined herein, including Compound A and its derivatives, on the formation of intracellular lipid droplets. Similar to Example 2, to induce in vitro fatty liver cell model on HepG2 with oleic acid, HepG2 cells were cultured in a 24-well plate at a cell volume of 8×10^4 and added with 0.1 mM of oleic acid for 24-hour culturing. After the replacement of culture medium containing oleic acid, 10 nM of Compound A and 10 nM of Compound C were individually added to different DMEMs for culturing for 24 hours, and four repetitions were performed for both Compound A and Compound C. ORO staining was used to confirm the level of lipid droplets in HepG2, and their number and size were quantified by Image J.

Row | SMILES | aspartate transaminase (AST) and alanine transaminase (ALT) compared with Group 2 [1] | ALT [1] [U/L] | AST [1] [U/L] | GLU [1] [mg/dL] | T-CHO [1] [mg/dL] | TG [1] [mg/dL] | percentage of area of lipid droplets relative to the total field of view in liver tissue [2] | liver appearance (size) [3] | percentage of collagen proportionate area (CPA) in liver tissue [4] | lipid droplet accumulation (HepG2 cells) | further results
1 | CC(=O)N[C@@H]1[C@@H](O[C@H](C)C(=O)N[C@@H](C)C(=O)N[C@H](CCC(=O)O)C(N)=O)[C@H](O)[C@@H](CO)O[C@H]1O [Compound A] | significantly lower | 240.5 ± 83.1 | 200.0 ± 68.4 | 287.2 ± 60.0 | 225.3 ± 53.2 | 30.1 ± 9.8 | much lower percentage of area of lipid droplets relative to the total field of view than Group 2 | smaller livers than Group 2 | much lower percentage of collagen proportionate area than Group 2 | reduced significantly | treatment time after which significant reduction of lipid droplets is observed (HuH-7 cells; HuH-7, 10 μg/mL): 4 h; treatment time at which maximum reduction of lipid droplets occurs (HuH-7 cells; HuH-7, 10 μg/mL): 16 h; number and size of lipid droplets (HuH-7 cells; HuH-7, 10 μg/mL compound for 4, 8, 16 and 24 hours): decrease with the increase of treatment time of Compound A in a time-dependent manner; treatment time after which significant reduction of lipid droplets is observed (HepG2 cells; HepG2, 10 μg/mL): 4 h; treatment time at which maximum reduction of lipid droplets occurs (HepG2 cells; HepG2, 10 μg/mL): 8 h; number and size of lipid droplets (HepG2 cells; HepG2, 10 μg/mL compound for 4, 8, 16 and 24 hours): decrease with the increase of treatment time of Compound A in a time-dependent manner; number and size of lipid droplets (HepG2 cells; HepG2, 0.1 mM oleic acid 24 h, then 0.5-10 μg/mL compound for 8 hours): decrease with the increase of Compound A concentration in a dose-dependent manner
2 | CCCCCCCCCCCCCCCC(=O)OCC(COP(=O)(O)OCCNC(=O)[C@H](C)NC(=O)CC[C@@H](NC(=O)[C@H](C)NC(=O)C(C)O[C@H]1[C@H](O)[C@@H](CO)OC(O)[C@@H]1NC(C)=O)C(N)=O)OC(=O)CCCCCCCCCCCCCCC (stereo partly shown) [Compound B] | significantly lower | 185.4 ± 83.1 | 191.3 ± 74.0 | 274.4 ± 31.0 | 234.0 ± 33.6 | 42.2 ± 18.9 | much lower percentage of area of lipid droplets relative to the total field of view than Group 2 | smaller livers than Group 2 | much lower percentage of collagen proportionate area than Group 2 |  | alleviating accumulation of hepatic fat induced by high fat diet, comparison of the compounds ([2]; Group 4 compared with Group 3): more effective than Compound A; average liver weight [3]: less than Group 2; ratio of liver weight to body weight (average liver weight percentage) [3]: smaller average liver weight percentage than Group 2; alleviating liver fibrosis complicated with fatty liver, comparison of the compounds ([4]; Group 4 compared with Group 3): more effective than Compound A
3 | CCCCOC(=O)[C@@H](CCC(N)=O)NC(=O)[C@H](C)NC(=O)[C@@H](C)OC1C(NC(C)=O)[C@@H](O)OC(CO)[C@H]1O (stereo partly shown) [Compound C] |  |  |  |  |  |  |  |  |  | reduced significantly | 
